Active and inactive are the calls of the source. The rule behind the calls is not given here.
target: T1, Bile acid receptor (Mus musculus) (UniProt Q60641); assay: Agonist activity at mouse FXR expressed in HEK293 cells co-expressing mouse RXRalpha and ECRE-luc by luciferase reporter gene assay; type: functional, cell-based
T1 sequence (whole entry): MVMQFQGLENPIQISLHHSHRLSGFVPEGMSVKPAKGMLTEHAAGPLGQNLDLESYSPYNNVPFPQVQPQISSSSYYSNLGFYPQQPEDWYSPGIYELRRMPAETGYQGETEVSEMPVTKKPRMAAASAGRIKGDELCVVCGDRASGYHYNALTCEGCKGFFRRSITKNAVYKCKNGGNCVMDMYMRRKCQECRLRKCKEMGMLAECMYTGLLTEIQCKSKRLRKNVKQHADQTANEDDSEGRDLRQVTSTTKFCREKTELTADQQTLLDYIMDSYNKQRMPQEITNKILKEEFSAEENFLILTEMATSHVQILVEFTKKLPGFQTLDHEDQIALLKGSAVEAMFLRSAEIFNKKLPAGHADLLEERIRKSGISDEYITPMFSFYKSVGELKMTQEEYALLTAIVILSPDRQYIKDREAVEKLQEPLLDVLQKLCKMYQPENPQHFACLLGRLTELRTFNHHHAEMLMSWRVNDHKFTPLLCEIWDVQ

Activity	Structure (SMILES)
Dose-dependent effect	CCCCc1ccc([C@@H](CC(=O)c2ccccc2)c2ccccc2)cc1
Dose-dependent effect	COc1ccc(N2CCN(C[C@H](O)COc3cc4c(c5c3CCCC5)CCCC4)CC2)cc1

target: T1, Bile acid receptor (Mus musculus); assay: Agonist activity at mouse FXR expressed in HEK293 cells co-expressing mouse RXRalpha and ECRE-luc up to 100 uM by luciferase reporter gene assay; type: functional, cell-based

Activity	Structure (SMILES)
inactive	C[C@]12CC[C@H]3[C@@H](CCC4CC(=O)/C(=C\C(F)(F)F)C[C@@]43C)[C@@H]1CC[C@@H]2C(=O)O (stereo partly drawn)
inactive	Cc1cc(C(=O)CCCCCCCCC(=O)O)ccc1O
inactive	O=C(O)c1cnc2cc(OCCOc3ccc(F)cc3)ccc2c1O
inactive	COc1ccc(/C(C)=N/NC(=O)CC(=O)N(C(=O)c2ccccc2)c2ccc(C)cc2)cc1
inactive	C1=C(c2ccc(OCc3ccccc3)c(OCc3ccccc3)c2)CC2CCCCC2C1 (stereo not drawn)
inactive	O=C(O)c1ccc(C(=O)c2ccc(C(=O)c3ccc(C(=O)O)cc3)cc2)cc1
